Measured values taken from patent US10640536B2, “Polymyxins, compositions, methods of making and methods of use” (XELLIA PHARMACEUTICALS APS, priority 2013, dated 2020).
Converted amounts (≈) assume the structure as drawn. Like-named read-outs stand apart in the source and are kept apart here.

Legend:
Type in all cases: cell-based
[1] = test system: Pseudomonas aeruginosa ATCC27853
Description: (§1) The deca sulfomethylated polymyxins were tested for antibacterial activity by determining the minimal inhibitory concentration (MIC) by use of the broth dilution method according to EUCAST. […] indicator organism were used e.g. Acinetobacter baumannii colistin-sensitive, Klebsiella pneumonia #3010, Pseudomonas aeruginosa ATCC27853, Escherichia coli ATCC25922 and Escherichia coli DSA443. The tests were performed at, Statens Serum Institut, Copenhagen, Denmark department for Microbiology and Infection Control.
(§2) The concentration range used was 0.125-128 μg/mL. Gentamicin was included as a positive quality control. Preparation of Gentamicin: 1000 μg/mL stock solution: 0.125 ml of a 40 mg/mL solution of Hexamicin+4.875 mL sterile water. 128 μg/mL: 0.640 mL of “1000 μg/mL stock solution”+4.36 mL Müeller-Hinton broth (MHB).
(§3) Preparation of compounds disclosed herein: 5 mg/ml stock solution: one vial of 5 mg was added 1.0 mL sterile water. 512 μg/mL solution: 0.205 mL of “5 mg/mL stock solution”+1.795 mL MHB
(§4) Preparation of inoculum: Fresh overnight colonies from 5% horse blood agar plates were suspended to a turbidity of 0.5 McFarland and further diluted in Müeller-Hinton broth to 1×10^6 CFU/ml. A total of 50 μL diluted bacterial suspension (Müeller Hinton BBL II-broth, SSI) was added to wells containing 50 μL of two fold compounds described herein or gentamicin dilutions. All compounds were tested in triplicate. The plates were incubated at 35° C., 16-20 h.

[2] = test system: Escherichia coli ATCC25922
Description: as §1, §2, §3, §4

[3] = test system: Acinetobacter baumannii colistin-sensitive
Description: as §1, §2, §3, §4

[4] = test system: Klebsiella pneumonia #3010
Description: as §1, §2, §3, §4

[5] = test system: Escherichia coli DSA443; test: MIC by broth dilution method according to EUCAST; conditions: Table 3, 35° C., 16-20 h
Description: as §1, §2, §3
Preparation of inoculum: Fresh overnight colonies from 5% horse blood agar plates were suspended to a turbidity of 0.5 McFarland and further diluted in Müeller-Hinton broth to 1×10^6 CFU/ml. A total of 50 μL diluted bacterial suspension (Müeller Hinton BBL II-broth, SSI) was added to wells containing 50 μL of two fold compounds described herein or gentamicin dilutions. […]

[6] = Table 3, broth dilution, 35° C., 16-20 h

| Compound | MIC P. aeruginosa ATCC 27853 ([1]; ATCC27853) [µg/mL] | MIC E. coli ATCC 25922 ([2]; ATCC25922) [µg/mL] | MIC A. baumannii ColistinS ([3]; colistin-sensitive) [µg/mL] | MIC K. pneumonia #3010 [4] [µg/mL] | further results |
| --- | --- | --- | --- | --- | --- |
| CC[C@H](C)CCCCC(=O)N[C@@H](CCN(CS(=O)(=O)O)CS(=O)(=O)O)C(=O)N[C@H](C(=O)N[C@@H](CCN(CS(=O)(=O)O)CS(=O)(=O)O)C(=O)N[C@H]1CCNC(=O)[C@H]([C@@H](C)O)NC(=O)[C@H](CCN(CS(=O)(=O)O)CS(=O)(=O)O)NC(=O)[C@H](CCN(CS(=O)(=O)O)CS(=O)(=O)O)NC(=O)[C@H](CC(C)C)NC(=O)[C@@H](CC(C)C)NC(=O)[C@H](CCN(CS(=O)(=O)O)CS(=O)(=O)O)NC1=O)[C@@H](C)O [Example 1, Penta (Nγ-Bis-Sulfomethyl) DAB1,3,5,8,9 Polymyxin E1] | 8 (≈ 3.79 µM) | 8 (≈ 3.79 µM) | 4 (≈ 1.9 µM) | 16 (≈ 7.58 µM) | – |
| CC[C@H](C)CCCCC(=O)N[C@@H](CCN(CS(=O)(=O)O)CS(=O)(=O)O)C(=O)N[C@H](C(=O)N[C@@H](CCN(CS(=O)(=O)O)CS(=O)(=O)O)C(=O)N[C@H]1CCNC(=O)[C@H]([C@@H](C)O)NC(=O)[C@H](CCN(CS(=O)(=O)O)CS(=O)(=O)O)NC(=O)[C@H](CCN(CS(=O)(=O)O)CS(=O)(=O)O)NC(=O)[C@H]([C@@H](C)CC)NC(=O)[C@@H](CC(C)C)NC(=O)[C@H](CCN(CS(=O)(=O)O)CS(=O)(=O)O)NC1=O)[C@@H](C)O [Example 3, Penta (Nγ-Bis-Sulfomethyl) DAB1,3,5,8,9 Polymyxin E1-i] | 8 (≈ 3.79 µM) | 8 (≈ 3.79 µM) | 4 (≈ 1.9 µM) | 16 (≈ 7.58 µM) | – |
| CC[C@H](C)CCCCC(=O)N[C@@H](CCN(CS(=O)(=O)O)CS(=O)(=O)O)C(=O)N[C@H](C(=O)N[C@@H](CCN)C(=O)N[C@H]1CCNC(=O)[C@H]([C@@H](C)O)NC(=O)[C@H](CCN(CS(=O)(=O)O)CS(=O)(=O)O)NC(=O)[C@H](CCN(CS(=O)(=O)O)CS(=O)(=O)O)NC(=O)[C@H](CC(C)C)NC(=O)[C@@H](CC(C)C)NC(=O)[C@H](CCN(CS(=O)(=O)O)CS(=O)(=O)O)NC1=O)[C@@H](C)O [PE1-(SM)8^1,5,8, 9, Tetra (Nγ-Bis-Sulfomethyl) DAB1,5,8,9 Polymyxin E1] | 8 (≈ 4.16 µM) | 8 (≈ 4.16 µM) | – | – | – |
| Gentamicin [reference compound] | – | – | – | – | MIC E. coli DSA 443 [5]: >32 µg/mL; MIC P. aeruginosa ATCC 27853 [1, 6]: 1 µg/mL; MIC of positive control against quality control limit ([1]; limit 0.5-2 μg/mL for P. aeruginosa ATCC27853): within the limit; MIC E. coli ATCC 25922 [2, 6]: 1 µg/mL; MIC of positive control against quality control limit ([2]; limit 0.25-1 μg/mL for E. coli ATCC 25922): within the limit; MIC A. baumannii ColistinS [3, 6]: >32 µg/mL; MIC K. pneumonia #3010 [4, 6]: 0.125 µg/mL |
| CC(C)CCCCC(=O)N[C@@H](CCN(CS(=O)(=O)O)CS(=O)(=O)O)C(=O)N[C@H](C(=O)N[C@@H](CCN(CS(=O)(=O)O)CS(=O)(=O)O)C(=O)N[C@H]1CCNC(=O)[C@H]([C@@H](C)O)NC(=O)[C@H](CCN(CS(=O)(=O)O)CS(=O)(=O)O)NC(=O)[C@H](CCN(CS(=O)(=O)O)CS(=O)(=O)O)NC(=O)[C@H](CC(C)C)NC(=O)[C@@H](CC(C)C)NC(=O)[C@H](CCN(CS(=O)(=O)O)CS(=O)(=O)O)NC1=O)[C@@H](C)O [Example 2, Penta (Nγ-Bis-Sulfomethyl) DAB1,3,5,8,9 Polymyxin E2] | 8 (≈ 3.82 µM) | 8 (≈ 3.82 µM) | 4 (≈ 1.91 µM) | 16 (≈ 7.63 µM) | – |
| CC[C@H](C)CCCCC(=O)N[C@@H](CCN(CS(=O)(=O)O)CS(=O)(=O)O)C(=O)N[C@H](C(=O)N[C@@H](CCN)C(=O)N[C@H]1CCNC(=O)[C@H]([C@@H](C)O)NC(=O)[C@H](CCN(CS(=O)(=O)O)CS(=O)(=O)O)NC(=O)[C@H](CCN)NC(=O)[C@H](CC(C)C)NC(=O)[C@@H](CC(C)C)NC(=O)[C@H](CCN(CS(=O)(=O)O)CS(=O)(=O)O)NC1=O)[C@@H](C)O [PE1-(SM)6^1,5, 9, Tri (Nγ-Bis-Sulfomethyl) DAB1,5,9 Polymyxin E1] | 8 (≈ 4.61 µM) | 8 (≈ 4.61 µM) | – | – | – |
